This is an account of results in patent US20150284349A1 (priority 2013, published 2015).

Like-named read-outs stand apart in the source and are kept apart here.

One data set concerns the target HIF/p300 complex (Homo sapiens, UniProt Q09472). The following applies: cited from earlier work.
The next data set relates to HIF1a. The following applies: cited from earlier work.
The nature of another data set: Log D7.4 measurement. Type of data set: physicochemical. As to conditions: pH 7.4; standard experimental conditions. As to the method:
(§1) The Log D7.4 value of compound 1 was measured to be 2.69 under standard experimental conditions. Inhibition of multiple CYP was measured for compound 1 using standard CYP inhibition assays.

A further data set relates to multiple CYP. The data set can be described thus: Standard CYP inhibition assays. As to conditions: each assay. Type of data set: in vitro ADME. As to the method:
as §1

Data set [1] can be described thus: Human microsome stability. Type of data set: in vitro ADME.
For data set [2], the system named is 786-O xenografts (renal cell carcinoma). The data set can be described thus: Mouse xenograft study, 786-O renal cell carcinoma. Type of data set: in vivo, mice. The method, then:
Mouse xenograft study was conducted to evaluate the primary endpoint of efficacy (reduction in tumor volume of >50% as compared to control) and the secondary endpoint of survival (Kaplan-Meier). Tumors were established in the flank region and grown to about 100 mm^3 The mice were treated with compound 1 in the 786-O xenografts (renal cell carcinoma) at 1 mg/kg given IV. The compound was injected every fourth day for 45 days (a total of 11 injections, see following table).
All tumors were imaged at the end of the study and harvested for histopathology studies. Percentages of tumor volumes in control and compound 1—treated mice measured throughout the entire duration of the experiments. Error bars are ±SEM of each experimental group.
After the last treatment with compound 1, mice were injected with the tumor-targeting near-infrared (NIR) contrast agent IR-783, anesthetized and imaged on a Xenogen IVIS 200 small animal imager. The fluorescence output was processed with Living Image software with one representative sample for each group presented above.

Data set [3] is described as follows: Oral pharmacokinetic study, bioavailability. The following applies: rat, plasma, 5 mg/kg b.w., Male SD rats. Type of data set: in vivo. The method, then:
Fasted animals (Male and Female BALB/c mice or SD rats, ten groups, three animals per group) were administered with compound 1 in vehicle (5% (v/v) N,N-Dimethylacetamide, 50% (v/v) of 60% (w/v) Sulfobutyl ether beta-cyclodextrin (SBEβCD) and 45% (v/v) Sterile water for injection) by oral route with a dose of 2.5, 5, and 10 mg/kg body weight at dose volume of 10 mL/kg b.w. Under mild isoflurane anesthesia, blood specimen were collected into pre-labeled tubes containing anticoagulant (K2EDTA—2 mg/mL blood) at various time points (0.08, 0.16, 0.25, 0.50, 1.00, 2.00, 4.00, 6.00, 8.00 and 24.00 hours). Collected blood specimens were centrifuged at 4000 rpm, 4° C. for 10 minutes and plasma was separated and stored at −80° C. until analysis.

Another data set in a line: Plasma protein binding. Type of data set: in vitro ADME.
A short description of data set [4]: Maximum tolerated dose study. Type of data set: in vivo, male BALB/c mice. As to conditions: for MTD at 14 days: male, BALB/c, mouse, in vivo. As to the method: Three groups of three animals (male BALB/c mice) were administered increasing doses of compound 1 every other day for 14 days and the animals checked daily for the signs of moribundity, mortality, vocalization, and gross weight or body shape abnormalities. Dose escalation of compound 1 was performed according to the “modified Fibonacci search” scheme, compound 1 (x=2 mg/kg) was dosed at 4, 6.6, 10, 14, 24 and 32 mg/kg on Days 0, 2, 4, 6, 8 and 10. […] An average MTD of 21.1 mg/kg for the three groups combined was determined from this study.

The nature of data set [5]: Intravenous pharmacokinetic study, observation for adverse symptoms. Type of data set: in vivo, male and female BALB/c mice. As to conditions: intravenous 1.0 mg/kg b.w., observed up to 24 hours post dose. As to the method:
Non-fasted animals (Male and Female BALB/c mice or SD rats, ten groups, three animals per group) were administered with compound 1 in vehicle (5% (v/v) N,N-Dimethylacetamide, 50% (v/v) of 60% (w/v) Hydroxypropyl beta-Cyclodextrin, 45% (v/v) Sterile water for injection) by intravenous route with various doses 0.5, 1, 2.5, and 5 mg/kg body weight at dose volume of 10 mL/kg body weight. Under mild isoflurane anesthesia, blood specimens were collected into pre-labeled tubes containing anticoagulant (K2EDTA—2 mg/mL blood) at various time points (0.08, 0.16, 0.25, 0.50, 1.00, 2.00, 4.00, 6.00, 8.00 and 24.00 hours). Collected blood specimens were centrifuged at 4000 rpm, 4° C. for 10 minutes and plasma was separated and stored at −80° C. until analysis.

Chain of HIF/p300 complex (Q09472 whole entry, one chain of several): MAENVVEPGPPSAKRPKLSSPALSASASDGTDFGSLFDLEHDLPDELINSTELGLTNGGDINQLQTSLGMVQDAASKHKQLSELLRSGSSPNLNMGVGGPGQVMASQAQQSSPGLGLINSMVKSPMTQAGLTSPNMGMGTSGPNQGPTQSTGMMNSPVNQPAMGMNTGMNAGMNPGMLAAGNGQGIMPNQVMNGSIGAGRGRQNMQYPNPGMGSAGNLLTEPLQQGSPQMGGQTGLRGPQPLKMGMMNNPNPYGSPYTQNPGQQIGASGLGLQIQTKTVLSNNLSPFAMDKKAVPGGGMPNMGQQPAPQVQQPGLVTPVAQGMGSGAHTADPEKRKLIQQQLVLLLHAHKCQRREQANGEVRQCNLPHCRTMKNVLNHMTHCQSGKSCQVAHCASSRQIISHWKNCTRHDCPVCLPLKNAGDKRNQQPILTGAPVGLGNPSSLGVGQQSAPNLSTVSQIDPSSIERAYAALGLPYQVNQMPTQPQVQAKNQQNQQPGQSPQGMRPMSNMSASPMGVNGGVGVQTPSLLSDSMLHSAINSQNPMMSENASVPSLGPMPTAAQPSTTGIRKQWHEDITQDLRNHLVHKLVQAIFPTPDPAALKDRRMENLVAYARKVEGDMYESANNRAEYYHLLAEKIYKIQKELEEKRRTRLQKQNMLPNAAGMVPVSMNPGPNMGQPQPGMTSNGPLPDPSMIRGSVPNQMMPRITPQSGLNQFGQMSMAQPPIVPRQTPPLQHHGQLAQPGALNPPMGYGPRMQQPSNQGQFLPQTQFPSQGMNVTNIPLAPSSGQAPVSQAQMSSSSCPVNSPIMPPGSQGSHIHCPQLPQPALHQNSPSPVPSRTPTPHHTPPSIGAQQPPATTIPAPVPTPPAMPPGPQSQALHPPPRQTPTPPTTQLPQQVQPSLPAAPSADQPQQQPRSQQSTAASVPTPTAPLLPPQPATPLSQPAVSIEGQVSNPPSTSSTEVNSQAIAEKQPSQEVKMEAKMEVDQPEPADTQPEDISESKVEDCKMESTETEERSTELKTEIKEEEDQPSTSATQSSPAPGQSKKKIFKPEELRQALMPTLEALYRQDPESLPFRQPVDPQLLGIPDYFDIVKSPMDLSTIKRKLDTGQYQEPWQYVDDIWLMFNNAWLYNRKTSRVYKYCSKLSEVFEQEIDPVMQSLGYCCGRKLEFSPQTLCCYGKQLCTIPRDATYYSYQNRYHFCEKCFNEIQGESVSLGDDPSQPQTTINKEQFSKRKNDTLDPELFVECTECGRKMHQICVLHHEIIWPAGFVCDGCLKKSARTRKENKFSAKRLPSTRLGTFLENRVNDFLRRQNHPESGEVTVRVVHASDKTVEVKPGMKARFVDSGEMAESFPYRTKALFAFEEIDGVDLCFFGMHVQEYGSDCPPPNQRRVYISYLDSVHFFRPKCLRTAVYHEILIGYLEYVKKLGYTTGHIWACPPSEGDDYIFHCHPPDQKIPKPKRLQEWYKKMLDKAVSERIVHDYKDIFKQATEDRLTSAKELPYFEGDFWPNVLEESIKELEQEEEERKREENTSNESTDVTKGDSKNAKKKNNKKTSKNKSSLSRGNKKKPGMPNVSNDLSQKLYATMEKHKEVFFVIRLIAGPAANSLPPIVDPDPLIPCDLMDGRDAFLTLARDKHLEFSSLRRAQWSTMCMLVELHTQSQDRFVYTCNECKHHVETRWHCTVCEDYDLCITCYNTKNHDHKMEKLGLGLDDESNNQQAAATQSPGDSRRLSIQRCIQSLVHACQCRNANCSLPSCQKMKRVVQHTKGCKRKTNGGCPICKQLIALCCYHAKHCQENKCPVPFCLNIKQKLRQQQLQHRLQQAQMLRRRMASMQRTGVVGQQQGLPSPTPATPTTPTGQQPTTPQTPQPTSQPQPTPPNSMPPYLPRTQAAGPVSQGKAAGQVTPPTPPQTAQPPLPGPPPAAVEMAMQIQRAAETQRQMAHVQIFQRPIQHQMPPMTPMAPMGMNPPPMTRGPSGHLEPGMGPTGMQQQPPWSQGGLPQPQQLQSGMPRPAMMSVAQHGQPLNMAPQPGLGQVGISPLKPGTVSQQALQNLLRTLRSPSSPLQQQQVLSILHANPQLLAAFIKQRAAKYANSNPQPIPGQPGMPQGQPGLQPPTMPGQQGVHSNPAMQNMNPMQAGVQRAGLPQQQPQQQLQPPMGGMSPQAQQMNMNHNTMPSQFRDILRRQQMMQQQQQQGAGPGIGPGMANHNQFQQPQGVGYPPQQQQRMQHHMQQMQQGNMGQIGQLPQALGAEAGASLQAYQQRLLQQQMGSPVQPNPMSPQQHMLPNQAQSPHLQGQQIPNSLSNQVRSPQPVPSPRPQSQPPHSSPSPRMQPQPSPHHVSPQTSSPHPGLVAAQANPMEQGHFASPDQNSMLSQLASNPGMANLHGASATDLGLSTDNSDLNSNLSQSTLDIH

As to `CN1C(=O)[C@]2(Cc3cn([C@]45C[C@@]67SS[C@@](CO)(C(=O)N6[C@H]4Nc4ccccc45)N(C)C7=O)c4ccccc34)SS[C@@]1(CO)C(=O)N2C` [chetomin], at HIF/p300 complex, the “inhibition of the HIF/p300 complex” value was “potent and specific inhibition”.

Regarding `COc1cc2c(cc1O)CC[C@@H]1[C@@H]2CC[C@]2(C)[C@@H](O)CC[C@@H]12` [2-methoxyestradiol], the “HIF1a levels in vitro” value with HIF1a is reported as “reduce HIFIa levels”.

In the data set “Log D7.4 measurement”, `CN1C(=O)[C@]2(Cc3ccc(CCc4ccc(C[C@@]56SS[C@@](CO)(C(=O)N5C)N(C)C6=O)cc4)cc3)SS[C@@]1(CO)C(=O)N2C` (racemic) [Compound 1, (±)-4,4′-((ethane-1,2-diylbis(4,1-phenylene))bis(methylene))bis(1-(hydroxymethyl)-5,7-dimethyl-2,3-dithia-5,7-diazabicyclo[2.2.2]octane-6,8-dione)] gave a pH-dependent lipophilicity (logD) of 2.69. For the same compound, the IC50 with multiple CYP was greater than 5 µM. Besides, the “in vitro clearance, human microsome stability studies” value in data set [1] is given as “favorable in vitro clearance”. The “human microsome stability T1/2” value in data set [1] (in the presence of co-factor) is “short”. Besides, the “median tumor volume increase” value in data set [2] (786-O xenografts in mice, 46 day experiment, control group 288%, P<0.01) came to 113%. Moreover, in [2] (after last treatment, Xenogen IVIS 200 imaging), the “intensity of the NIR signal from tumor-accumulated contrast agent IR-783 compared to control group” value is recorded as “significantly lower intensity”. Besides, the weight loss in data set [2] (during the 45 day experiment) is 5-8%. The compound also gave a bioavailability in [3] of 28%. Moreover, the plasma protein binding entry in “Plasma protein binding” is recorded as “highly protein bound”. The signs of toxicity result in data set [4] (14 mg/kg dose, male BALB/c mice) is given as “no signs of toxicity”; in data set [4] (24 mg/kg dose, male BALB/c mice), “one animal exhibited signs of toxicity”. Further, the “animals affected per group of three (quantity not given)” value in [4] (Dose 4 mg/kg, Group 1) came to 0; in data set [4] (Dose 4 mg/kg, Group 2) it was 0; in data set [4] (Dose 4 mg/kg, Group 3), 0; in data set [4] (Dose 6.6 mg/kg, Group 1) it was 0; in data set [4] (Dose 6.6 mg/kg, Group 2), 0; in [4] (Dose 6.6 mg/kg, Group 3), 0. Besides, the “animals affected per group of three (quantity not given)” value in [4] (Dose 10 mg/kg, Group 1) turned out to be 0; in [4] (Dose 10 mg/kg, Group 2) it was 0; in [4] (Dose 10 mg/kg, Group 3) it was 0; in data set [4] (Dose 14 mg/kg, Group 1), 0; in [4] (Dose 14 mg/kg, Group 2) it was 0; in [4] (Dose 14 mg/kg, Group 3), 0. Further, the “animals affected per group of three (quantity not given)” value turned out to be 0 in data set [4] (Dose 24 mg/kg, Group 1); 1 in data set [4] (Dose 24 mg/kg, Group 2); 1 in data set [4] (Dose 24 mg/kg, Group 3); 3 in data set [4] (Dose 32 mg/kg, Group 1); 3 in data set [4] (Dose 32 mg/kg, Group 2); 3 in data set [4] (Dose 32 mg/kg, Group 3). Moreover, the MTD at 14 days in [4] (Group 1, read-out: MTD) was 25.3 mg/kg; in [4] (Group 2, read-out: MTD), 19 mg/kg; in [4] (Group 3, read-out: MTD), 19 mg/kg; in [4] (three groups combined, male BALB/c mice, read-out: Average MTD), 21.1 mg/kg. Further, in data set [5], the “adverse symptoms after dosing” value is given as “found to be normal”.

A word on the logD: it is lipophilicity at a set pH, counting ionised and neutral species. A word on the IC50: it is the concentration that gives 50% inhibition. Usually bioavailability stands for the share of a dose that reaches the circulation, judged against a reference dose that is usually intravenous. A lower bioavailability goes with poor availability. A word on the MTD: it is the highest dose tested that stayed within the study's limit of toxicity.
